Data reported in publication PMC6395926, “Mass Balance and Drug Interaction Potential of Intravenous Eravacycline Administered to Healthy Subjects” (Antimicrobial Agents and Chemotherapy, 2019).

Legend:
Format in all cases: in vivo, human
[1] = Drug interaction study with itraconazole (CYP3A4 inhibitor): plasma PK of i.v. eravacycline and metabolites; conditions: for AUC(0-t) / Cmax / clearance / half-life / Vd: human, plasma, iv, mean ± SD, n = 10; for Vd: read-out: Vss
Protocol: (§1) Two single-center, open-label studies were conducted to evaluate the effects of itraconazole (CYP3A4 inhibitor) and rifampin (CYP3A4 inducer) on the pharmacokinetics of i.v. eravacycline in healthy subjects.
(ii) Study design. Each study included a 28-day screening period, a 13-day treatment period (19 days for rifampin), and an end-of-study visit 2 weeks after the last dose of study drug. Eravacycline was administered in the morning as a 1-mg/kg i.v. infusion over 60 min on day 1 with a second dose on day 10 (itraconazole study) or day 17 (rifampin study). For the itraconazole study, 200 mg oral itraconazole was administered q12h on day 8 and q24h on days 9 and 10. For the rifampin study, 600 mg oral rifampin was administered q24h from day 8 to day 17. All study treatments were administered in the fasting state.
(§2) (iii) Study assessments. Blood samples for PK analysis of eravacycline and its metabolites, TP-498, TP-6208, and TP-034, were collected predose and 1, 2, 4, 6, 8, 12, 24, 36, and 48 h after the start of the i.v. infusion on day 1 and day 10 (itraconazole) or day 1 and day 17 (rifampin). Safety assessments included AEs, clinical laboratory safety tests (hematology, serum chemistry, electrolytes, coagulation, urinalysis, and lipid profile), vital signs, physical examinations, and 12-lead ECG.
(§3) Concentrations of eravacycline, TP-498, and TP-6208 in human plasma samples were measured by LC-tandem MS after solid-phase extraction over a calibration range of 5.00 to 500 ng/ml. The LLOQ for eravacycline, TP-498, TP-6208, and TP-034 in human plasma was 5.00 ng/ml. Samples with eravacycline initial concentrations above the upper limit of quantification (500 ng/ml) were diluted appropriately with control blank human plasma and reanalyzed. There was no interference seen when human plasma was fortified with eravacycline, TP-498, TP-6208, and either itraconazole or rifampin.
(§4) (iv) Pharmacokinetic analysis. PK assessments included Cmax, Tmax, AUC0–24, AUC0–t, t1/2, CL, and Vss. Actual sampling time was used for PK calculations. PK parameters were derived by noncompartmental analysis. Descriptive statistics were calculated for analyte concentrations at each evaluation time point and for all quantitative PK parameters of eravacycline, TP-498, TP-6208, and TP-034 for day 1 and day 10 (day 17 for rifampin). The effect of itraconazole or rifampin on the PK profile of i.v. eravacycline was evaluated by comparing log-transformed PK parameters (Cmax and AUC0–t) associated with the administration of study drug on day 1 and day 10 (itraconazole) or day 1 and day 17 (rifampin) using paired t tests. The ratio and 90% confidence interval (CI) were presented after back transformation to the original scale. Pharmacokinetic variables were calculated using WinNonlin Professional.

[2] = Mass balance study: safety/tolerability
Protocol: Safety was assessed from adverse events (AEs), physical examinations, laboratory safety tests (hematology, coagulation, clinical chemistry, and urinalysis), vital signs, ECGs, and body weight.

[3] = Drug interaction study with rifampin (CYP3A4 inducer): plasma PK of i.v. eravacycline and metabolites; conditions: for AUC0–24 / AUC(0-inf) / clearance / half-life / Vd / Cmax: n = 12; for Vd: read-out: Vss; for Cmax: iv
Protocol: as §1
(ii) Study design. Each study included a 28-day screening period, a 13-day treatment period (19 days for rifampin), and an end-of-study visit 2 weeks after the last dose of study drug. […] For the itraconazole study, 200 mg oral itraconazole was administered q12h on day 8 and q24h on days 9 and 10. For the rifampin study, 600 mg oral rifampin was administered q24h from day 8 to day 17. All study treatments were administered in the fasting state.
as §2, §3, §4

[4] = eravacycline plus itraconazole (day 10) vs eravacycline alone (day 1), 1 mg/kg i.v.
[5] = day 1, eravacycline 1 mg/kg i.v. alone
[6] = day 10, eravacycline 1 mg/kg i.v. with itraconazole
[7] = eravacycline plus rifampin (day 17) vs eravacycline alone (day 1), 1 mg/kg i.v.
[8] = human, plasma, intravenous, 1 mg/kg, day 1, eravacycline alone, mean ± SD
[9] = human, plasma, intravenous, day 17, with rifampin, mean ± SD

CN(C)[C@@H]1C(O)=C(C(N)=O)C(=O)[C@@]2(O)C(O)=C3C(=O)c4c(O)c(NC(=O)CN5CCCC5)cc(F)c4C[C@H]3C[C@@H]12 [eravacycline]
Ratio of geometric mean AUC0–t, day 10/day 1 [1, 4]: 134.3%
Ratio of geometric mean Cmax, day 10/day 1 [1, 4]: 107.9%
decrease of CL with itraconazole ([1]; eravacycline plus itraconazole day 10 vs day 1): about 30%
AUC(0-t) [1, 5]: 4320 ng·h/mL
Cmax [1, 5]: 1100 ng/mL
clearance [1, 5]: 3.79 ± 1.03 mL/min/kg
half-life [1, 5]: 14 ± 2.4 h
Vd [1, 5]: 3.42 ± 0.73 L/kg
AUC(0-t) [1, 6]: 5700 ng·h/mL
Cmax [1, 6]: 1160 ng/mL
clearance [1, 6]: 2.57 ± 0.5 mL/min/kg
half-life [1, 6]: 19 ± 3.6 h
Vd [1, 6]: 3.37 ± 0.56 L/kg
serious or severe AEs [2]: No serious or severe AEs
number of subjects who experienced drug-related AEs ([2]; 5 male subjects): 3
subjects who experienced at least 1 adverse effect (AE) ([2]; 5 male subjects, single i.v. dose): 80%
AUC0–24 ([3]; day 1, eravacycline alone, mean ± SD): 4,100 ± 589 h·ng/ml
AUC0–24 ([3]; day 17, with rifampin, mean ± SD): 3,090 ± 568 h·ng/ml
decrease of AUC0–24 with coadministration of rifampin ([3]; day 17 vs day 1): approximately 25%
decrease of AUC0–∞ with coadministration of rifampin ([3]; day 17 vs day 1): ~35%
increase of CL with coadministration of rifampin ([3]; day 17 vs day 1): approximately 50%
Ratio of geometric mean AUC0–t, day 17/day 1 [3, 7]: 67.9%
Ratio of geometric mean Cmax, day 17/day 1 [3, 7]: 106.5%
AUC(0-inf) [3, 8]: 5380 ng·h/mL
clearance [3, 8]: 3.2 ± 0.6 mL/min/kg
half-life [3, 8]: 15 ± 2 h
Vd [3, 8]: 2.85 ± 0.29 L/kg
AUC(0-t) ([3]; human, plasma, intravenous, 1 mg/kg, day 1, eravacycline alone, read-out: AUC0–t (distribution, as worded in the text)): 4100 ng·h/mL
AUC(0-inf) [3, 9]: 3520 ng·h/mL
clearance [3, 9]: 4.94 ± 1.08 mL/min/kg
half-life [3, 9]: 11 ± 2.3 h
Vd [3, 9]: 2.49 ± 0.51 L/kg
Cmax ([3]; human, plasma, day 1, eravacycline 1 mg/kg i.v. alone, mean ± SD): 1170 ng/mL
Cmax ([3]; human, plasma, day 17, eravacycline 1 mg/kg i.v. with rifampin 600 mg daily day 8 to 17, mean ± SD): 1260 ng/mL
